This passage reports melting point results from a melting point compilation (Tetko et al.; mined from patent text by program, amines drawn as free bases though some values may be those of a salt).

On to `CCOC(=O)C(C)(C)Oc1ccc(CCNC(=O)CCc2cc(C(C)(C)C)c(O)c(C(C)(C)C)c2)cc1`, for which the melting point (commonly the temperature of the solid-liquid transition) lay in the range of 168 to 171 °C.
Regarding `O=C(Nc1ccccc1)c1cscc1Cl`, the melting point lay within 119 to 121 °C.
The compound `COC(=O)c1cc(-c2ccc(S(C)(=O)=O)cc2)n(-c2ccc(Cl)cc2)n1` registered a melting point of 169 to 171 °C.
`O=C(O)COC(c1ccc(Cl)cc1)c1ccc(Cl)cc1` had a melting point of 108 to 110 °C.
`CCCc1nc2c(nc1O)CCCC2`: the melting point lay within 131 to 133 °C.
For the compound `CCOC(=O)C(=CNNc1c(Cl)cc(Cl)cc1Cl)C(=O)OCC`, the melting point came to 92 °C.
In turn, `O=Cc1cc(O)c(O)cc1Cl` gave a melting point of 217 to 218 °C.
As to `O=C(/C=C/C=C/c1cccc2ccccc12)NCCCCCC(=O)NO`, the melting point was 143 to 145 °C.
As to `CCCc1c(OCCCCCc2c(Cl)ccc(OC)c2OC)ccc(C(=O)O)c1O`, the melting point was 140 to 142 °C.
Regarding `COc1ccc(C(=O)c2ccc(Cl)nc2)cc1OC`, the melting point was 158 to 159 °C.
With `CC1CN(c2ccccc2)C(=O)N(c2cccc(C(F)(F)F)c2)C1` (centres undefined), the melting point was in the range of 121 to 123 °C.
Under `CSc1c(C=C(C#N)S(C)(=O)=O)c2ccccc2n1Cc1ccccc1` stands 125 to 126 °C; under `CC(O)C#Cc1ncn2c1CN(C)C(=O)c1c(Cl)cccc1-2` (centres undefined), 251 to 252 °C; under `Cc1ccc(-c2c(C)c(NC(=O)CC(C)(C)C)c(C)c3c2OCC3c2ccc(C(C)C)cc2)cc1` (centres undefined), 194 to 195 °C.
As to `Clc1ccc2[nH]c(Cc3ccccc3)c(C3=NCCN3)c2c1`, the melting point lay in the range of 299 to 300 °C.
Under `CC(=O)SCc1ccc([N+](=O)[O-])cc1[N+](=O)[O-]` stands 78 to 79 °C.
Regarding `CC(S(N)(=O)=O)S(=O)(=O)N1CCCC1` (centres undefined), the melting point fell in the range of 78 to 80 °C.
`CC(CCCC(C)(C)O)C1CCC2C3C=CC4=CC(=O)C5OC5C4(C)C3CCC12C` (centres undefined) gave a melting point of 162 to 163 °C.
`CN(C)C=NS(=O)(=O)c1cc(CCNC(=O)C(F)(F)F)ccc1OCC(F)(F)F` had a melting point of 130 °C.
Under `O=c1nc(-c2ccccn2)sc2ccc(O)cc12` stands 313 to 315 °C.
Regarding `O=c1[nH]cnc2c1CCN(Cc1ccccc1)C2`, the melting point was 199 °C.
In the case of `CC(=O)Nc1c(C(=O)c2ccc(Cl)cc2)[nH]c2cc(Cl)ccc12`, the melting point was in the range of 175 to 176 °C.
`CCOc1cc(-c2cc(C(F)(F)F)n3ncc(C(=O)Nc4cccc(S(=O)(=O)NC5CC5)c4)c3n2)ccc1C(F)(F)F` gave a melting point of 225 °C.
Under `CSC(=NS(=O)(=O)c1ccccc1-c1ccccc1)SC` stands 115 to 117 °C; under `COc1ccc(C2=NN(CCCO)C(=O)[C@H]3CCCC[C@@H]23)cc1OC` (relative stereo), 94 to 97 °C.
Under `CCOC(=O)/C=C/c1nc(COc2ccc(COc3nn(-c4ccccc4)cc3/C=C/P(=O)(OCC)OCC)cc2OC)c(C)o1` stands 130 to 131 °C; under `CCCn1cnc(C(N)=O)c1NC(=S)NC(=O)c1ccccc1`, 163 to 164 °C; under `O=C1Nc2cccc(F)c2C12COc1cc3c(cc12)OCCO3` (centres undefined), 282 to 285 °C.
For `N#Cc1cc(Cl)c(N)c(I)c1`, the melting point fell in the range of 121 to 123 °C.
The value for `CC(C)(C)OC(=O)N1CCC[C@H](O)[C@H](NC(=O)c2ccc(OC(C)(C)C)cc2)C1` was 132 °C; that for `CC1=CCC2C(=O)N(c3ccccc3)C(=O)C2C1` (centres undefined) was 92 to 93 °C; that for `CCCCCOc1ccc(C(=O)Nc2ccc3cc(CN4CCCC4)cnc3c2C)c(F)c1` was 143 °C.
Under `CN(C)c1cccc(C(=O)N2CCN(CCc3ccc(Cl)cc3)CC2)c1` stands 110 to 112 °C.
The compound `CN(CCCNC(=O)NCCCCOc1cccc(CN2CCCCC2)c1)CCN(Cc1ccc(F)cc1)c1ccccn1` showed a melting point of 115 °C.
`CCOC(=O)C(C)(C)NC(=O)c1cccc(C2=NC(C)(C)Cc3cc(OCC)c4c(c32)CC(C)(C)O4)c1` returned a melting point of 155 to 156 °C.
Compound `CCC(CC)(COc1cc(C)c2nc(C)nn2n1)CS(N)(=O)=O` showed a melting point of 159 to 160 °C.
`CN(C(=O)c1ccc2nonc2c1)[C@H]1CC[C@H](n2ncnn2)CC1` registered a melting point of 172 to 175 °C.
Take `COc1ccccc1NC(=O)Nc1nc(Nc2ccccc2-c2ccccc2)nc(N(CC(=O)O)Cc2ccc(OC)c(OC)c2)n1`: the melting point fell in the range of 115 to 120 °C.
Under `CCN(CC)C(=O)Cc1c(-c2ccc(O)cc2)nn2c(C)cc(C)nc12` stands 242 to 247 °C; under `c1ccc(-c2ccc3cnc(NCc4cccnc4)nn23)cc1`, 201 to 203 °C; under `O=C(O)Cc1cccc(C(=O)c2ccc(Cl)cc2)c1`, 148 °C.
As for `Cc1cc(Oc2ccc(Oc3ccc(N)c(C)c3)cc2)ccc1N`, the melting point lay within 150 to 151 °C.
Turning to `O=C(O)c1nc(SC2CCCCC2)ccc1SC1CCCCC1`, the melting point was 100 to 101 °C.
Consider `O=[N+]([O-])c1cc(C2=Nc3ccccc3SC2)cc(O)c1O`, for which the melting point lay in the range of 302 to 304 °C.
`CCOC(=O)c1ccc(C(F)(F)F)c(N(C)C(C)=O)n1` yielded a melting point of 145 to 146 °C.
The value for `COC(=O)c1cc(OC)c(N(C)C(C)=O)c(OC)c1` was 115 to 116 °C.
Under `OCc1cccc2nc(-c3ccncc3)oc12` stands 146 to 147 °C; under `O=c1ccc2ccc(OCCCCCc3ccccc3)cc2o1`, 103 °C; under `CSc1ccc(NC(=O)N2CC(c3ccc(C(F)(F)F)cn3)C(c3ccc(Cl)cc3)=N2)cc1` (centres undefined), 225 to 226 °C.
`C=CC[C@H](NS(=O)(=O)c1ccc(OC)cc1)C(=O)OC(C)(C)C`: the melting point lay within 58 to 59 °C.
The value for `CCCNS(=O)(=O)c1cccc(C)c1C#N` was 74 to 77 °C; that for `O=C(Cc1ccccc1)NCO` was 78 °C.
The value for `O=C(O)Cn1cc(-c2ccc3nnn(Cc4ccc5ncccc5c4)c3n2)cn1` was > 270 °C; that for `CNC1=CC=CC(OCCCN2CCC(c3noc4cc(F)ccc34)CC2)(C(C)=O)C1` (centres undefined) was 151 to 153 °C.
The value for `CCn1cc(CN(C(=O)C2CCCc3c(O)cccc32)c2ccc(OC)cc2)cn1` (centres undefined) was 211 to 213 °C.
In the case of `C#CCOc1cc(NNC(=S)C(C)(C)C)c(Cl)cc1Cl`, the melting point lay in the range of 126 to 128 °C.
The value for `CC1Cc2ccc(Cl)cc2C(c2ccc(N)cc2)=NN1C(=O)C(F)(F)F` (centres undefined) was 165 to 167 °C; that for `CCOC(=O)COc1ccc(SCCc2cccc3sc(-c4ccc(C(F)(F)F)cc4)nc23)cc1C` was 97 to 100 °C; that for `CCCCc1cc(NN)n2nccc2n1` was 126 to 129 °C.
The value for `O=[N+]([O-])c1oc2ccc(-c3nnn[nH]3)cc2c1-c1ccccc1` was 215 to 217 °C; that for `N#Cc1nn(-c2c(Cl)cc(C(F)(F)F)cc2Cl)cc1I` was 83 to 84 °C.
The value for `CCOC(=O)/C=C/c1ccc(OCC(C)(C)O)cc1Oc1ncc(C(F)(F)F)cc1Cl` was 79 to 83 °C; that for `OC(Cn1ccnc1)(c1ccc(-c2ccccc2)cc1)c1ccccc1Cl` (centres undefined) was 222 °C.
In turn, `COC(=O)c1ccc(OCCCNc2ccc3c(c2)OCO3)cc1` had a melting point of 124 to 127 °C.
